# Source: patent US7199153B2, “Pharmaceutical composition comprising paracetamol and niflumic acid” (SmithKline Beechman, p.l.c., priority 2000, dated 2007)
# Tested on: P-phenyl-quinone induced abdominal constriction in DBA/2 mice
# Assay: P-phenyl-quinone induced mouse abdominal constriction (MAC) assay
# Format: in vivo
# Conditions: paracetamol alone at 50 mg/kg and 150 mg/kg, po
# Description: The method is based on that described by Siegmund, Cadmus and Lu in “A Method for Evaluating both Non-Narcotic and Narcotic Analgesics” Proc. Soc. Exp. Biol. Med., 95: 729–731 (1957)).
# DBA/2 mice were housed 20 per cage in a temperature and humidity controlled environment on a 12:12 hour light-dark cycle for five days with food and water ad libitum before testing. […] Ten animals were randomly allocated to each drug group and experimental designs were used that allowed complete randomisation of the testing of drug groups. Drugs were suspended in 1% methylcellulose and administered 10 ml/kg po, 60 mins pre-test. Abdominal constriction was induced by i.p. injection of 10 ml/kg P-phenyl-quinone (0.025% in 5% ethanol/water) and the total number of constrictions in a twenty minute period were measured. A constriction is defined as a flattening of the abdomen with extension of the hind limbs. Testing was blind with one experimenter observing five animals. All experiments were performed in accordance with the Animals (Scientific Procedures) Act 1986 and subject to local ethical committee approval.
# For each drug group, the mean % inhibition of constrictions was calculated ((1-(test/control))*100) and appropriate statistics were performed on log-transformed data to test significant differences from vehicle and, in the case of groups receiving drug combinations, each drug alone.
smiles,measurement,value
"CC(=O)Nc1ccc(O)cc1 [Paracetamol, N-acetyl-p-aminophenol]","% inhibition of constrictions, drug alone",small but significant effect
